Source: patent publication US20030018025A1, “Certain 4-aminomethyl-2-substituted imidazole derivatives and 2-aminomethyl-4-substituted imidazole derivatives: new classes of dopamine receptor subtype specific ligands” (Neurogen Corporation, Corporation of the State of Delaware, priority 1995, published 2003)
Structures can show the parent of a compound that is named as a salt.

With `COc1ccc(Br)cc1-c1ncc(CN(C)C)[nH]1` (as salt: hydrochloride) [Compound 1, 2-(5-bromo-2-methoxyphenyl)-4(5)-[(N,N-dimethyl)aminomethyl]-imidazole dihydrochloride] the melting point was 242 to 243 °C.
`c1ccc(-c2ncc(CN3CCC(c4ccccc4)CC3)[nH]2)cc1` (as salt: hydrochloride) [Compound 26, 2-Phenyl-4(5)-[(4-phenyl-piperidin-1-yl)-methyl]-imidazole dihydrochloride] gave a melting point of 238 to 240 °C.
With `COc1ccccc1N1CCN(Cc2cnc(-c3cccc(OC)c3OC)[nH]2)CC1` (as salt: hydrochloride) [Compound 21, 2-(2,3-Dimethoxyphenyl)-4(5)-[(4-(2-methoxyphenyl)-piperazin-1-yl)-methyl]-imidazole dihydrochloride] the melting point was 217 to 218 °C.
Compound `Cc1ccc(-c2ncc(CN3CCN(c4ncccn4)CC3)[nH]2)cc1` [Compound 133] has a melting point of 178 to 180 °C.
In the case of `COc1cc(Br)cc(-c2ncc(CN(C)C)[nH]2)c1OC` (as salt: hydrochloride) [Compound 16, 2-(5-Bromo-2,3-dimethoxyphenyl)-4(5)-[(N,N-dimethyl)aminomethyl]-imidazole dihydrochloride], the melting point is reported as 194 °C.
Work on `c1ccc(CC2CCN(Cc3ncc(-c4ccccc4)[nH]3)CC2)cc1` (as salt: fumarate) [Compound 77, 4-phenyl-2(5)-[(4-benzylpiperidin-1-yl)-methyl]imidazole] yielded a melting point of 155 to 157 °C.
`O=C(c1cnc(-c2ccccc2)[nH]1)N1CCN(c2ncccn2)CC1` [Compound 144, 2-phenyl-4(5)-N-[(4-(2-pyrimidinyl)piperazin-1-yl)-carboxamido]-imidazole] showed a melting point of 231 to 232 °C.
`Fc1ccc(N2CCN(Cc3cnc(-c4ccccc4)[nH]3)CC2)cc1` (as salt: hydrochloride) [Compound 56, 2-Phenyl-4(5)-[(4-(4-fluorophenyl)-piperazin-1-yl-)methyl]imidazole dihydrochloride] showed a melting point of 64 to 68 °C.
Compound `COc1ccccc1N1CCN(Cc2cnc(-c3ccc(F)cc3)[nH]2)CC1` [Compound 20, 2-(4-Fluorophenyl)-4(5)-[(4-(2-methoxyphenyl)-piperazin-1-yl)-methyl]-imidazole] has a melting point of 95 to 97 °C.
Work on `O=C(CCc1cnc(-c2ccccc2)[nH]1)N1CCN(c2ncccn2)CC1` [Compound 122, 2-phenyl-4(5)-[(4-(2-pyrimidinyl)-piperazin-1-yl)-propan-1-oyl]-imidazole] yielded a melting point of 143 to 148 °C.
`COc1cccc(-c2ncc(CN3CCC(c4ccccc4)CC3)[nH]2)c1` (as salt: hydrochloride) [Compound 50, 2-(3-Methoxyphenyl)-4(5)[(4-phenyl-piperidin-1-yl)-methyl]-imidazole dihydrochloride] gave a melting point of 114 to 117 °C.
`Cc1ccc(Cl)cc1N1CCN(Cc2cnc(-c3ccccc3)[nH]2)CC1` (as salt: hydrochloride) [Compound 60, 2-Phenyl-4(5)-[(4(5-chloro-2-methylphenyl)-piperazin-1yl-)-methyl]imidazole dihydrochloride] gave a melting point of 142 to 145 °C.
`C[C@@H]1CN(c2ncccn2)C[C@H](C)N1Cc1cnc(-c2ccccc2)[nH]1` [Compound 140, 2-phenyl-4(5)-[(4-(2-pyrimidinyl)-cis-2,6-dimethylpiperazin-1-yl)-methyl]-imidazole] gave a melting point of 130 to 135 °C.
In the case of `c1ccc(CC2CCN(CC3CCCc4[nH]c(-c5ccccc5)nc43)CC2)cc1` (stereo not drawn) [Compound 138, 2-phenyl-7-[(4-benzyl-piperidin-1-yl)-methyl]-4,5,6,7-tetrahydrobenzimidazole], the melting point is reported as 189 to 191 °C.
Work on `CC(c1cnc(-c2ccccc2)[nH]1)N1CCC(Cc2ccccc2)CC1` (stereo not drawn) (as salt: hydrochloride) [Compound 91, 2-phenyl-4(5)-[1-((4-benzyl-piperidin-1-yl)-ethan-1-yl)]imidazole dihydrochloride salt] yielded a melting point of 169 to 171 °C.
